Results reported in patent US4923865A, “Substituted 1-(1H-imidazol-4-yl)alkyl-benzamides as anti-ischemics and as alpha-2-adrenergic receptor agonists” (U C B Societe Anonyme, priority 1988, dated 1990).
Where two headings read alike, the source gives them in different places.

What was measured:
[1] = tested on: myocardial ischemia; test: Artificially induced acute coronary insufficiency in an awake dog (ST-segment elevation); assay type: in vivo; settings: Canis lupus familiaris, 0.1 h, intravenous, 6 min coronary occlusion, groups of ten animals, read-out: DE20 (dose producing a mean reduction of at least 20% of the ST-segment elevation)
Description: Because of the reduction in the oxygen supply which results from this, the occlusion produces myocardial ischemia which is expressed on the electrocardiogram by a reproducible and quantifiable ST-segment elevation. The anti-ischemic action of a compound results in a reduction of the magnitude of the ST-segment elevation. (P. R. MAROKO and E. BRAUNWALD, Circulation, 53, (1976, Suppl. I), 162-168; S. E. EPSTEIN et al., Circulation, 53, (1976, Suppl. I), 191-197).

[2] = molecular target: T1, α2 -adrenergic receptors (Rattus norvegicus, UniProt P22909); test: Competitive binding assay with [^3 H]clonidine on rat brain membranes; settings: 30 minutes incubation, read-out: IC50 (50% inhibition of the binding of [^3 H]clonidine)
T1 construct: three different preparations of rat brain membranes; from tissue; host or cells: rat brain membranes
T1 sequence (P22909 1-465): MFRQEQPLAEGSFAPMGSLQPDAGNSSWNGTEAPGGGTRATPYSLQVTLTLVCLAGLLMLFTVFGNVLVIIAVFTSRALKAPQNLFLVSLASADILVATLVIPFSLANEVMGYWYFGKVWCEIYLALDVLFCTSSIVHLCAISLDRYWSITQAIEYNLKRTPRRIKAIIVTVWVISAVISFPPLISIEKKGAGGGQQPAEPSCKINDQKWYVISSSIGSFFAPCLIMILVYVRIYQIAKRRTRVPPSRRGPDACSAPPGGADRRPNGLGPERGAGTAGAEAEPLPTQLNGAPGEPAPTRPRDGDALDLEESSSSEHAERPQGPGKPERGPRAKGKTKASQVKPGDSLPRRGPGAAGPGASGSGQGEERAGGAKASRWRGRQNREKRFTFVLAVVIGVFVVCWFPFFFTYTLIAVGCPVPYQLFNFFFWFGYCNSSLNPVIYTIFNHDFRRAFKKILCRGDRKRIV
Description: (a) Competitive binding assay with a radioligand. The object of competitive binding assays is to measure the affinity of the compounds of the invention for α2 -adrenoceptors. These conventional experiments involve the competition for binding to α2 -adrenergic receptors between the tested compound on the one hand, and on the other hand, a radioligand which, in this particular case of α2 -adrenergic receptors, is the [^3 H]clonidine which is known to be a specific α2 -adrenergic agonist.
The method used is that of D. C. U'PRICHARD et al., Mol. Pharmacol. 13, (1977), 454-473.
The displacement curves for binding of [^3 H]clonidine have been determined with nine concentrations of compound A, ranging from 10^-4 to 10^-10 mole/l, and with three different preparations of rat brain membranes. The samples were incubated for 30 minutes, and then filtered under reduced pressure using a Whatman GF/B filter. The filters are washed three times with 5 ml of Tris-HCl buffer (pH 7.5 at 0° C.) and then dried for one minute. The radioactivity is measured in an Econofluor (-NEN Corp.) medium. The [^3 H]clonidine (25.5 Ci/mmole) used is provided by Amersham.
The affinity of compound A for the α2 -adrenergic receptors has been calculated from the displacement curves of the [^3 H]clonidine. […]

[3] = molecular target: T2, presynaptic α2 -adrenergic receptors (Cavia porcellus, UniProt Q60474); test: Inhibition of the contraction of electrically stimulated guinea-pig ileum
T2 construct: Stimulation of a guinea-pig ileum; from tissue; host or cells: guinea-pig ileum longitudinal muscle strips
T2 sequence (Q60474 1-464): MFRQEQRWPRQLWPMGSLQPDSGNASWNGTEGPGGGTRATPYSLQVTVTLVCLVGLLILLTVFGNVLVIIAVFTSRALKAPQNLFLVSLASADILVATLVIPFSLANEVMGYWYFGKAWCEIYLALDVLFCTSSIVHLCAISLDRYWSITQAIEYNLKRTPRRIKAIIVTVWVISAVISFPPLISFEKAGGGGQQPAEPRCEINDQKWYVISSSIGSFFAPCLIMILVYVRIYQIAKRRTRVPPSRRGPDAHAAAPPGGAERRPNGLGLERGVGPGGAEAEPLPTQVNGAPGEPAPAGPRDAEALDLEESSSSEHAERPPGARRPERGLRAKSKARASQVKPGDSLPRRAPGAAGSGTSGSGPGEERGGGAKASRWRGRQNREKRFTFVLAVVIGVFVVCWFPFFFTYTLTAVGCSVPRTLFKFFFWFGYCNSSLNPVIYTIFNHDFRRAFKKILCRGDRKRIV
Description: (c) Stimulation of a guinea-pig ileum. Longitudinal muscles strips attached to an isometric strain gauge are suspended in Tyrode's solution and are stretched under a tension of 1 g (G. M. DREW. Brit. J. Pharmacol. 64, (1978), 293-300; M. ANDREJAK et al., Naunyn-Schmiedelberg's Arch. Pharmacol. 314, (1980), 83-87).
Electrical stimulation of the parasympathetic nerves associated with the ileum fragments causes a contraction of the muscle. This contraction is reduced in the presence of a presynaptic α2 -agonist and the magnitude by which the contraction is reduced depends on the concentration of the agonist used. This effect is antagonized by the simultaneous presence of an α2 -antagonist such as α-yohimbine. The compounds to be studied have been tested at increasing concentrations ranging from 10^-10 to 10^-3 mole/l.
The concentration (IC50 in mole/l) that reduces by 50% the intensity of the contraction of the muscle is determined.
In the presence of α-yohimbine at a concentration of 10^-6 mole/l, the concentration of the compounds A or B, for example, that is required for reducing muscle contraction intensity by 50% is higher, and becomes greater than 10^-6 mole/l, which gives additional confirmation that the compounds of the invention act really at the level of the presynaptic α2 -adrenergic receptors.

[4] = Diuretic activity in beagle dogs (urine excretion); assay type: in vivo; settings: for Mean relative increase in urine excretion: first three hours; for minimal effective dose: Canis lupus familiaris, iv, 3 h, i.v., read-out: minimum active dose that causes a statistically significant increase of the urine excretion
Method: 4. Diuretic activity. The diuretic activity of the compounds of the invention has been determined using beagle dogs (6 males and 6 females) be means of a 6-way randomized cross-over study.
The compounds to be studied are administered intravenously at increasing doses: 2, 6.5, 20, 65 and 200 μg/kg. During the first three hours following the injection, the volume of urine excreted is measured. Table VIII gives for compound A the mean relative increase in % of the volume of urine excreted with respect to the group of animals which have not received the compound.

Cl.NC(=O)c1cccc(Cc2c[nH]cn2)c1O [A, 2-hydroxyl-3-[(1H-imidazol-4-yl)methyl]-benzamide hydrochloride]
ED20 [1]: 0.03 µmol/kg | IC50 [2]: 8.9 nM | IC50 ([3]; guinea-pig ileum, electrical stimulation, read-out: IC50 (reduces by 50% the intensity of the contraction of the muscle)): 7 nM | IC50 ([3]; in the presence of 10^-6 mole/l of α-yohimbine, read-out: concentration required for reducing muscle contraction intensity by 50%): > 1000 nM | Mean relative increase in urine excretion ([4]; 2 μg/kg i.v., females, P < 0.05): 74% | Mean relative increase in urine excretion ([4]; 2 μg/kg i.v., males): 25% | Mean relative increase in urine excretion ([4]; 6.5 μg/kg i.v., females, P < 0.01): 291% | Mean relative increase in urine excretion ([4]; 6.5 μg/kg i.v., males, P < 0.05): 122% | Mean relative increase in urine excretion ([4]; 20 μg/kg i.v., females, P < 0.01): 531% | Mean relative increase in urine excretion ([4]; 20 μg/kg i.v., males, P < 0.01): 383% | Mean relative increase in urine excretion ([4]; 65 μg/kg i.v., females, P < 0.01): 804% | Mean relative increase in urine excretion ([4]; 65 μg/kg i.v., males, P < 0.01): 345% | Mean relative increase in urine excretion ([4]; 200 μg/kg i.v., females, P < 0.01): 988% | Mean relative increase in urine excretion ([4]; 200 μg/kg i.v., males, P < 0.01): 412% | minimal effective dose ([4]; females): ≤ 2 µg/kg | minimal effective dose ([4]; males): ≤ 6.5 µg/kg
